Reference: the supplement of paper PMC10331698
± gives the standard deviation of the averaged measurements.

Legend:
Assay in all cases: level (log10 ratio to DMSO vehicle control); higher = higher biomarker level / cell amount than vehicle control
[1] = compound: CCOC(=O)CC(=O)C(F)(F)C(F)(F)F [Ethyl pentafluoropropionyl acetate] (in DMSO)
Description: (§1)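 BioMAP Diversity Plus panel of 12 human primary cell co-culture systems (3C, 4H, LPS, SAg, BT, BF4T, BE3C, CASM3C, HDF3CGF, KF3CT, MyoF, Mphg). Compounds were added 1 h before stimulation and left for 24 h (MyoF 48 h; BT 72 h for soluble read-outs or 6 d for IgG). Biomarkers were read by ELISA, cytotoxicity by SRB, PBMC viability and proliferation by Alamar Blue. Each well value was divided by the mean of 8 DMSO control wells on the same plate and log10 transformed; duplicate blinded samples were tested at 4 concentrations.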

[2] = compound: NS(=O)(=O)C(F)(F)C(F)(F)C(F)(F)C(F)(F)C(F)(F)C(F)(F)C(F)(F)C(F)(F)F [Perfluorooctanesulfonamide] (in DMSO)
Description: as §1

[3] = compound: O=C(O)C(F)(F)OC(F)(F)C(F)(F)OC(F)(F)C(F)(F)OC(F)(F)C(F)(F)C(F)(F)C(F)(F)F [Perfluoro-3,6,9-trioxatridecanoic acid] (in DMSO); conditions: 6700 nM
Description: as §1

[4] = compound: O=C(O)C=C(C(F)(F)F)C(F)(F)F [3,3-Bis(trifluoromethyl)-2-propenoic acid] (in DMSO)
Description: as §1

[5] = compound: O=C(O)CCC(F)(C(F)(F)F)C(F)(F)F [4,4-bis(Trifluoromethyl)-4-fluoropropanoic acid] (in DMSO)
Description: as §1

[6] = compound: O=S(=O)(O)C(F)(F)C(F)(F)OC(F)(F)C(F)(F)F [Perfluoro(2-ethoxyethane)sulfonic acid] (in DMSO)
Description: as §1

[7] = compound: O=S(=O)(O)CCC(F)(F)C(F)(F)C(F)(F)C(F)(F)C(F)(F)C(F)(F)C(F)(F)C(F)(F)F [8:2 Fluorotelomer sulfonic acid] (in DMSO)
Description: as §1

Row | Test System | level (log10) ([1]; 6700 nM) | level (log10) ([1]; 20000 nM) | level (log10) ([1]; 60000 nM) | level (log10) ([2]; 6700 nM) | level (log10) ([2]; 20000 nM) | level (log10) [3] | level (log10) ([4]; 6700 nM) | level (log10) ([4]; 20000 nM) | level (log10) ([4]; 60000 nM) | level (log10) ([5]; 6700 nM) | level (log10) ([5]; 20000 nM) | level (log10) ([5]; 60000 nM) | level (log10) ([6]; 6700 nM) | level (log10) ([6]; 20000 nM) | level (log10) ([6]; 60000 nM) | level (log10) ([7]; 6700 nM) | level (log10) ([7]; 20000 nM) | level (log10) ([7]; 60000 nM)
1 | 3C:CCL2/MCP-1 | -0.012 ± 0.0042 | -0.0185 ± 0.0035 | 0.002 ± 0.0085 | -0.0015 ± 0.0021 | 0.085 ± 0.0057 | 0.0155 ± 0.021 | 0.001 ± 0.011 | -0.0065 ± 0.0064 | 0.0015 ± 0.037 | 0.0005 ± 0.0092 | 0.0035 ± 0.012 | 0.0015 ± 0.0021 | -0.022 ± 0.03 | -0.014 ± 0.014 | -0.0095 ± 0.019 | -0.01 ± 0.0085 | -0.0335 ± 0.021 | -0.0185 ± 0.005
2 | 3C:CD54/ICAM-1 | -0.0015 ± 0.012 | -0.01 ± 0.016 | 0.0025 ± 0.022 | -0.0005 ± 0.005 | 0.002 ± 0.011 | 0.0005 ± 0.021 | -0.002 ± 0.0071 | -0.018 ± 0.0071 | -0.0095 ± 0.018 | -0.01 ± 0.017 | -0.022 ± 0.024 | -0.0085 ± 0.011 | -0.0105 ± 0.028 | -0.0095 ± 0.023 | -0.01 ± 0.024 | -0.008 ± 0.0099 | 0.003 ± 0.013 | 0.034 ± 0.0042
3 | 3C:CD62E/E-Selectin | -0.0035 ± 0.013 | -0.007 ± 0.023 | 0.011 ± 0.0071 | -0.006 ± 0.02 | 0.043 ± 0.011 | -0.0355 ± 0.0092 | -0.044 ± 0.0057 | -0.081 | -0.123 ± 0.026 | -0.0065 ± 0.016 | -0.0165 ± 0.016 | -0.0085 ± 0.012 | 0.0125 ± 0.012 | 0 | 0.0125 ± 0.0064 | 0.013 ± 0.025 | 0.0385 ± 0.0021 | 0.0715 ± 0.0078
4 | 3C:CD106/VCAM-1 | -0.0045 ± 0.0064 | -0.008 ± 0.0057 | -0.015 ± 0.0071 | -0.0005 ± 0.012 | 0.003 ± 0.013 | -0.0335 ± 0.023 | -0.0575 ± 0.03 | -0.0805 ± 0.025 | -0.157 ± 0.017 | -0.0195 ± 0.018 | -0.0215 ± 0.03 | -0.0085 ± 0.023 | 0.008 ± 0.033 | 0.002 ± 0.0071 | 0 ± 0.0085 | 0.002 ± 0.0014 | 0.009 ± 0.0028 | 0.019 ± 0.016
5 | 3C:CD141/Thrombomodulin | -0.013 ± 0.0099 | -0.0185 ± 0.021 | -0.0455 ± 0.00071 | 0.018 ± 0.0099 | 0.107 ± 0.0014 | -0.0155 ± 0.0021 | 0.023 ± 0.0057 | 0.0025 ± 0.00071 | 0.0215 ± 0.037 | -0.035 ± 0.082 | -0.021 ± 0.062 | -0.0435 ± 0.069 | 0.0085 ± 0.018 | -0.0145 ± 0.036 | -0.023 ± 0.0028 | -0.003 ± 0.024 | -0.011 ± 0.034 | 0.0285 ± 0.037
6 | 3C:CD142/Tissue Factor | -0.006 ± 0.0071 | -0.019 ± 0.031 | -0.033 | -0.05 ± 0.017 | -0.033 ± 0.031 | -0.0085 ± 0.03 | 0.0445 ± 0.018 | -0.022 ± 0.037 | -0.138 ± 0.052 | 0.024 ± 0.0099 | 0.0115 ± 0.0078 | -0.002 ± 0.023 | 0.013 ± 0.0057 | -0.001 ± 0.024 | 0.017 ± 0.0042 | -0.018 ± 0.065 | 0.001 ± 0.052 | -0.0295 ± 0.046
7 | BE3C:Keratin 8/18 | 0.0105 ± 0.022 | 0.0095 ± 0.033 | 0.001 ± 0.0085 | -0.0475 ± 0.013 | -0.0185 ± 0.0021 | -0.293 ± 0.032 | -0.001 ± 0.0014 | -0.0025 ± 0.005 | 0.014 ± 0.031 | 0.011 ± 0.0028 | -0.0005 ± 0.025 | -0.0045 ± 0.011 | -0.007 ± 0.013 | -0.0105 ± 0.013 | -0.01 ± 0.011 | 0.007 ± 0.0042 | 0.017 ± 0.0085 | 0.043 ± 0.014
8 | BE3C:MMP-1 | -0.01 ± 0.013 | -0.023 ± 0.018 | 0.021 ± 0.0014 | 0.084 ± 0.021 | 0.154 ± 0.014 | -0.471 ± 0.023 | -0.066 ± 0.0099 | -0.0425 ± 0.005 | 0.0305 ± 0.073 | 0.0065 ± 0.035 | 0.0105 ± 0.059 | 0.006 ± 0.045 | -0.001 ± 0.0071 | 0.0055 ± 0.018 | 0.108 ± 0.069 | 0.048 ± 0.024 | 0.1715 ± 0.00071 | 0.232 ± 0.027
9 | BE3C:MMP-9 | 0.006 ± 0.044 | -0.0145 ± 0.033 | -0.0065 ± 0.013 | -0.101 ± 0.016 | -0.131 ± 0.0014 | -0.4295 ± 0.0021 | -0.0425 ± 0.005 | -0.0735 ± 0.0021 | -0.079 ± 0.027 | 0.0085 ± 0.035 | -0.024 ± 0.0042 | -0.003 ± 0.03 | -0.0015 ± 0.00071 | -0.0005 ± 0.015 | 0.0265 ± 0.012 | 0.0045 ± 0.0064 | 0.0325 ± 0.035 | 0.015 ± 0.031
10 | BE3C:PAI-I | 0.008 ± 0.0014 | -0.006 ± 0.014 | 0.0045 ± 0.018 | -0.194 ± 0.03 | -0.202 ± 0.016 | -0.526 ± 0.018 | -0.043 ± 0.0042 | -0.0315 ± 0.005 | -0.0085 ± 0.032 | 0.009 ± 0.018 | -0.004 ± 0.018 | 0.006 ± 0.061 | -0.011 ± 0.023 | 0.0015 ± 0.021 | 0.032 ± 0.014 | 0.044 ± 0.014 | 0.126 ± 0.026 | 0.0955 ± 0.011
11 | BE3C:SRB | -0.002 ± 0.0042 | -0.0015 ± 0.0035 | 0.002 ± 0.0071 | -0.0145 ± 0.0021 | -0.0315 ± 0.00071 | -0.231 ± 0.012 | -0.005 ± 0.0042 | -0.0025 ± 0.0035 | 0.01 ± 0.0057 | 0.003 ± 0.0014 | -0.001 ± 0.0057 | 0.018 ± 0.0085 | -0.001 ± 0.0042 | 0 ± 0.0014 | 0.0055 ± 0.018 | -0.007 ± 0.0071 | -0.017 | -0.025 ± 0.0085
12 | BE3C:tPA | -0.019 ± 0.041 | -0.034 ± 0.038 | -0.028 ± 0.035 | 0.0025 ± 0.035 | -0.058 ± 0.055 | -0.452 ± 0.005 | -0.16 ± 0.041 | -0.166 ± 0.0042 | -0.179 ± 0.073 | 0.02 ± 0.075 | -0.001 ± 0.044 | -0.025 ± 0.027 | -0.004 ± 0.034 | -0.053 ± 0.013 | 0.0595 ± 0.013 | 0.0755 ± 0.021 | 0.0535 ± 0.0064 | -0.021 ± 0.0099
13 | BE3C:uPA | -0.0105 ± 0.013 | -0.011 ± 0.013 | -0.0195 ± 0.0035 | -0.0065 ± 0.013 | 0.0145 ± 0.0064 | -0.349 ± 0.005 | -0.0205 ± 0.011 | -0.015 ± 0.0099 | -0.0045 ± 0.018 | -0.01 ± 0.038 | -0.021 ± 0.031 | -0.0355 ± 0.052 | -0.0015 ± 0.022 | -0.0145 ± 0.039 | -0.004 ± 0.023 | 0.006 ± 0.0071 | 0.0055 ± 0.0035 | -0.002 ± 0.0028
14 | CASM3C:CCL2/MCP-1 | -0.001 ± 0.0028 | 0.003 ± 0.0057 | 0.009 ± 0.027 | 0.01 ± 0.013 | 0.01 ± 0.023 | -0.0045 ± 0.023 | -0.03 ± 0.0028 | -0.0425 ± 0.00071 | -0.0465 ± 0.022 | -0.016 ± 0.013 | -0.016 ± 0.0085 | 0.0165 ± 0.039 | -0.003 ± 0.024 | -0.013 ± 0.0071 | -0.0115 ± 0.036 | -0.0095 ± 0.00071 | -0.003 ± 0.0057 | 0.016 ± 0.04
15 | CASM3C:CD87/uPAR | 0.0015 ± 0.028 | -0.013 ± 0.0057 | -0.01 ± 0.017 | -0.007 ± 0.031 | -0.0055 ± 0.026 | 0.0205 ± 0.018 | -0.0235 ± 0.023 | -0.029 ± 0.031 | -0.031 ± 0.023 | 0.027 ± 0.0028 | 0.0265 ± 0.013 | 0.03 ± 0.024 | 0.0025 ± 0.032 | 0.01 ± 0.024 | -0.0165 ± 0.046 | 0.025 ± 0.0099 | 0.022 ± 0.0014 | -0.0055 ± 0.016
